We go through 4 molecules from US20230109697A1, “COMBINED ANTI-CYTOKINE THERAPY TO REDUCE METASTATIC CANCER” (The Board of Trustees of the Leland Stanford Junior …, priority 2020, published 2023).

The target in experiment [1] is T1, CCR2 chemokine receptor (Homo sapiens, UniProt P41597).
T1 construct: endogenous in cells; host or cells: THP-1
Conditions: cited from earlier work.

The test system of experiment [2] is non-polarized macrophages. Briefly: Macrophage polarization by qPCR, MYC-HCC conditioned medium with recombinant cytokines. Type of experiment: cell-based, mouse. The settings on record: recombinant cytokine added to cultured MYC-HCC cells. How it is done: FIG. 11. a. Quantification of migration of macrophages treated with MYC- or MYC/Twist1 -cells conditioned media. b. Expression of M1 marker genes in macrophages treated with conditioned media from MYC-HCC or MYC/Twist1-HCC. c. Spheroid co-culture assay of MYC/Twist1 -cells and macrophages after treatment with either CCL2 antibody or control antibody. F4/80 staining was performed to quantify number of spheroids with macrophage infiltration (*p<0.05). d. Experimental scheme- Conditioned medium of MYC-HCC cells treated with PBS or recombinant IL13 or CCL2 respectively was added to non-polarized macrophages for 48 hours. Macrophage polarization was assessed by qPCR for M2 markers (ARG1, […]) and M1 markers (IFNAR2, CCR2) (**p<0.005).
Quantitative Real-Time PCR: RNA was isolated using RNeasy plus mini kit according to the manufacturer’s instructions (Qiagen). cDNA was synthesized using SuperScript III (ThermoFisher). qPCR was performed using specific primers (Supplemental Table 1) and SYBR Green (Roche) in an Applied Biosystems Real Time PCR System (Life Technologies). Data were normalized to UBC. A minimum of 3 biological and 3 technical replicates were used for all qPCR experiments.

Experiment [3] relates to MYC-HCC. Briefly: Orthotopic MYC-HCC transplant in NSG mice treated with recombinant cytokines. Conditions: for macrophage infiltration increase: IHC staining for F4/80; for metastases (FC): single cytokine vs control, 4 weeks. In kind it is in vivo, mouse. How it is done:
FIG. 5 Both CCL2 and IL13 are required to promote Twist1-driven metastasis. a. Experimental scheme- Mice orthotopically transplanted with MYC-HCC cells were treated either with PBS or IL13 or CCL2 or CCL2+IL13 recombinant cytokines for 4 weeks. b. Representative histopathology of lung sections from MYC-HCC bearing mice treated with PBS or CCL2+IL13. c. Histopathology of liver ([…]) of MYC-HCC bearing mice treated with PBS or CCL2 or IL13 or CCL2+IL13 and IHC for F4/80 and MYC expression in each group. d. Quantification of number of metastatic nodules in the liver control treated or recombinant cytokine treated MYC-HCC bearing mice. (**p<0.01). e. Quantification of macrophage infiltration in liver by IHC staining for F4/80 of MYC-HCC bearing mice liver treated with PBS or CCL2 or IL13 or CCL2+IL13. f. Histopathology of lung (1X and 20X) of MYC-HCC bearing mice treated with PBS or CCL2 or IL13 or CCL2+IL13 and IHC for F4/80 and MYC expression in each group. g. Quantification of number of metastatic nodules in the lung of control treated or recombinant cytokine treated MYC-HCC bearing mice. (**p<0.01). h. Quantification of macrophage infiltration in lung by IHC staining for F4/80 of MYC-HCC bearing mice liver treated with PBS or CCL2 or IL13 or CCL2+IL13.
Orthotopic transplantation assay: An orthotopic mouse model was established by transplanting mouse MYC- or MYC/Twist1-HCC tumors (1 mm^3) under the liver capsule of NOD/Scid/Gamma (NSG) recipient mice. Bioluminescent (BLI) and MRI scans monitoring are used to monitor tumor engraftment and growth. Mice are euthanized once predetermined specific endpoints are met or based on morbidity whichever occurs first.
in vivo treatment mouse models: For antibody treatment, mice were injected i.p. with isotype control IgG or anti-CCL2 (BioXcell), -IL13 and -IL4 (Genentech) antibody (10 mg/kg body weight three times per week). For recombinant cytokines treatment, mice were injected i.p. three times per week with PBS or CCL2 (Peprotech, 500 ng/mouse), IL13 and IL4 (Peprotech, 250 ng/mouse). For clodronate liposomes (CL) treatment, CL or control liposomes were administered i.p. at 6.5 µl/g body weight 3 times per week to NSGs mice. CL and control treatments were administered to NSG mice previously injected i.v. with 0.5×10^6 MYC/twist1-HCC cells or orthotopically transplanted with MYC/Twist1-HCC tumors. Experimental and control mice were killed 4 weeks after tumor were transplanted. Primary tumors and lung metastases were collected for H&E staining and IHC.

T1 sequence (P41597 whole entry): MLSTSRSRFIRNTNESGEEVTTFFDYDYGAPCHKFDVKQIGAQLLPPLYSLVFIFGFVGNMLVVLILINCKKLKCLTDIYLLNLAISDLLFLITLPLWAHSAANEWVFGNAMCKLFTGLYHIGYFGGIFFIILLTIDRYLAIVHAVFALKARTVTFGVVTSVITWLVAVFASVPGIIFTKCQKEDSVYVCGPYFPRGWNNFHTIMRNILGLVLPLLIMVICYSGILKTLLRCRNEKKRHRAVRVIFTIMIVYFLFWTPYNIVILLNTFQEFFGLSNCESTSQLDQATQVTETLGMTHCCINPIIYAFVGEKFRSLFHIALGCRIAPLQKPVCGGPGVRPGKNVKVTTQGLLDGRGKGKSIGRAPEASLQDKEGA

The IC50 is the point on the concentration scale where inhibition reaches its midpoint. As to `CC(C)(C)N1CCN[C@@H](C(=O)N2CCN(C(=O)Nc3ccc(Cl)c(F)c3)CC2)C1` [AZD2423], in experiment [1] (THP-1 cell line, pre-clinical studies, read-out: IC50, inhibition of MCP-1 induced calcium mobilization and chemotaxis), the IC50 was 4 nM. Also, the “selectivity for CCR2” value in experiment [1] is greater than 500 fold.

As to “CCL2: recombinant cytokine CCL2 (Peprotech)”, in experiment [2], the M2 marker expression entry is “not”. In experiment [3], the macrophage infiltration increase is 1.8 fold and the “metastases (FC)” value is given as 3 FC.

On to “IL13: recombinant cytokine IL13 (Peprotech)”, for which the M2 marker expression result in experiment [2] is given as “increased M2 marker expression”. Further, in experiment [3], the macrophage infiltration increase result is reported as “did not increase macrophage infiltration” and the “metastases (FC)” value is on record as 1 FC.

B1: recombinant IL4: recombinant cytokine IL4 (Peprotech), control (protein, UniProt P05112 25-153, looked up)
Interleukin-4: HKCDITLQEIIKTLNSLTEQKTLCTELTVTDIFAASKNTTEKETFCRAATVLRQFYSHHEKDTRCLGATAQQFHRHKQLIRFLKRLDRNLWGLAGLNSCPVKEANQSTLENFLERLKTIMREKYSKCSS
In the case of B1, the macrophage infiltration increase entry in experiment [3] is “did not elicit macrophage recruitment”. The “effect on metastasis” value in experiment [3] (mouse, in vivo) is given as “did not elicit macrophage recruitment or increase metastasis”.
